The Ki is a measure of affinity in units of concentration, obtained from inhibition or displacement.

Experiment [1] has as its target T1, human A3 AR (Homo sapiens, UniProt P0DMS8).
T1 construct: expressed in transfected cells; host or cells: CHO cells
T1 sequence (P0DMS8 1-318): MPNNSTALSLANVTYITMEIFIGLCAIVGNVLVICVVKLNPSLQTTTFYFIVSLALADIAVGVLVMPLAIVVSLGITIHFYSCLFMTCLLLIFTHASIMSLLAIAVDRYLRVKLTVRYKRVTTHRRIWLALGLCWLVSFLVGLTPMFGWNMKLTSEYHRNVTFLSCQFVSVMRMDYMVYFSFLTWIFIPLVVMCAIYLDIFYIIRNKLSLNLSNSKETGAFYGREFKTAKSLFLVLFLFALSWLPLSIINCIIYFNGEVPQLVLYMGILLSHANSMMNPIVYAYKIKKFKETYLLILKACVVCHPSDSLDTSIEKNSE
Put plainly: Radioligand binding assay at human A3 AR vs. [^3H]PSB-11. The settings on record: for Ki: CHO cell membranes, n = 2 (n = 3 where marked a), read-out: Ki ± SEM, A3 vs. [^3H]PSB-11; for inhibition at 10 µM: at 10,000 nM, read-out: % inhibition of radioligand binding at indicated concentration, A3 vs. [^3H]PSB-11. Summed up:
(§1)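 Rat A1 affinity was measured on cortical membranes and rat A2A on striatal membranes from rat brain. Human A1, A2A, A2B and A3 subtypes were tested on membranes of CHO cells recombinantly expressing each receptor. No functional assays were run, as these xanthine-type compounds act only as blockers.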

The target of experiment [2] is T2, rat A1 AR (Rattus norvegicus, UniProt P25099).
T2 construct: A1 ARs of rat brain cortical membrane; from tissue; host or cells: rat brain cortex membranes
T2 sequence (P25099 1-326): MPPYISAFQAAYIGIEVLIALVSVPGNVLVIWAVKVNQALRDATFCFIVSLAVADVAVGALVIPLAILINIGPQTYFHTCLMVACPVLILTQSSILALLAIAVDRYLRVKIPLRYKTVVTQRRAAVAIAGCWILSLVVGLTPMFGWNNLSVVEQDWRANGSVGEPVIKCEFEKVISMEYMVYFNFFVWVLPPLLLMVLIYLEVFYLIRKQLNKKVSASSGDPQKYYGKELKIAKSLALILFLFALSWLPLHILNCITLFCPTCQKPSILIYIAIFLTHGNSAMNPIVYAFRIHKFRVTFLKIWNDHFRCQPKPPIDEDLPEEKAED
Put plainly: Radioligand binding assay at rat A1 AR (rat brain cortex) vs. [^3H]CCPA. The settings on record: rat (r); rat brain cortex; n = 3. Summed up:
as §1

Experiment [3] has as its target T3, human A2B AR (Homo sapiens, UniProt P29275).
T3 construct: expressed in transfected cells; host or cells: CHO cells
T3 sequence (P29275 1-332): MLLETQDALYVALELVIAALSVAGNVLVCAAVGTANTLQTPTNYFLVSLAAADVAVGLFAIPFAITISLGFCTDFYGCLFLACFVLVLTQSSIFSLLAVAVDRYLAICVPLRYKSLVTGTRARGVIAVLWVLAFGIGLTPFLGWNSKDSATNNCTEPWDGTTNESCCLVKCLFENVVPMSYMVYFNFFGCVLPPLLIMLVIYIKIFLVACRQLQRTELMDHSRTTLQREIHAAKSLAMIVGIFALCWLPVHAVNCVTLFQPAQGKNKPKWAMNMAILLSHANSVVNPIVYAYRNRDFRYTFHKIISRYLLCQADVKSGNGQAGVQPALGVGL
Put plainly: Radioligand binding assay at human A2B AR vs. [^3H]PSB-603. To be noted: for Ki: CHO cell membranes, n = 2 (n = 3 where marked a), read-out: Ki ± SEM, A2B vs. [^3H]PSB-603; for inhibition at 1 µM: at 1,000 nM; for inhibition at 1 µM / inhibition at 0.1 µM: read-out: % inhibition of radioligand binding at indicated concentration, A2B vs. [^3H]PSB-603; for inhibition at 0.1 µM: at 100 nM. Summed up:
as §1

Experiment [4] concerns the target T4, human A1 AR (Homo sapiens, UniProt P30542).
T4 construct: expressed in transfected cells; host or cells: CHO cells
T4 sequence (P30542 1-326): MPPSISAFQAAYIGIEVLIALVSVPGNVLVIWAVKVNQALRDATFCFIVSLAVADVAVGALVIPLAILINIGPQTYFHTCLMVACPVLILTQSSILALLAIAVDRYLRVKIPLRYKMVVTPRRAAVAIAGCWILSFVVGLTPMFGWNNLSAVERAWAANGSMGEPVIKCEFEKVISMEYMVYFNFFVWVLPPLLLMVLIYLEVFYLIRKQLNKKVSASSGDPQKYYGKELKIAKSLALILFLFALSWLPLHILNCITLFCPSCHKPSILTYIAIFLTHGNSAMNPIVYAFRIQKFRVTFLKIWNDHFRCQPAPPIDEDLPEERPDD
Put plainly: Radioligand binding assay at human A1 AR vs. [^3H]CCPA. The settings on record: for Ki: human (h), CHO cell membranes, n = 3; for selectivity for the human A1 vs. the human A2A AR: ratio of Ki values, human receptors. The method, boiled down:
as §1

The target of experiment [5] is T5, rat A2A AR (Rattus norvegicus, UniProt P30543).
T5 construct: A2A ARs of rat brain striatal membrane preparations; from tissue; host or cells: rat brain striatum membranes
T5 sequence (P30543 whole entry): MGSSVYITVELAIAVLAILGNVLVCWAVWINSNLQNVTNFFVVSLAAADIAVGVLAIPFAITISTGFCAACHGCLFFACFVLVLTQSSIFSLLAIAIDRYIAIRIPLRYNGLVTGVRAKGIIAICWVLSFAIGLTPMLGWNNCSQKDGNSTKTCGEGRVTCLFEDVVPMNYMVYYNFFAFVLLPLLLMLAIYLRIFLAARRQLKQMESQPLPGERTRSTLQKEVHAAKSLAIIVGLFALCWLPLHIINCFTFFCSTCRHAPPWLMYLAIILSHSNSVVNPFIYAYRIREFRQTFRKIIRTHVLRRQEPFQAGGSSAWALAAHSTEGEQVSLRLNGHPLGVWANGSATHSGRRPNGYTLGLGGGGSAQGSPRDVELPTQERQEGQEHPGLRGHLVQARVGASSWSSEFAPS
The experiment can be described thus: Radioligand binding assay at rat A2A AR (rat brain striatum) vs. [^3H]MSX-2. The settings on record: rat (r); for Ki: rat brain striatum, n = 3, read-out: Ki ± SEM, A2A vs. [^3H]MSX-2; for % inhibition of radioligand binding at indicated concentration, A2A vs. [^3H]MSX-2: at 1,000 nM. The method, boiled down:
as §1

In the case of `CCn1c(=O)c2c(nc3n2CCN(Cc2cc(Cl)ccc2Cl)C3)n(C)c1=O` [Compound 14j, 8-(2,5-dichlorobenzyl)-3-ethyl-1-dimethyl-6,7,8,9-tetrahydropyrazino[2,1-f]purine-2,4(1H,3H)-dione], the Ki was > 10 µM in experiment [1]; 36.9 ± 6.1 nM in experiment [2]; > 1000 nM in experiment [3]; 391 ± 77 nM in experiment [4]; 617 ± 114 nM in experiment [5]. For the same compound, the inhibition at 10 µM in experiment [1] was found to be 42%. In addition, the inhibition at 1 µM in experiment [3] was 2%.
Consider `CCn1c(=O)n(C)c(=O)c2c1nc1n2CCN(Cc2ccc(Cl)c(Cl)c2)C1` [Compound 16a, 8-(3,4-dichlorobenzyl)-1-ethyl-3-methyl-6,7,8,9-tetrahydropyrazino[2,1-f]purine-2,4(1H,3H)-dione], for which the Ki is > 10 µM in experiment [1]; 236 ± 23 nM in experiment [2]; > 1000 nM in experiment [3]; 396 ± 154 nM in experiment [4]; 1100 nM in experiment [5]. For the same compound, the inhibition at 10 µM in experiment [1] was 19%. In experiment [3], the inhibition at 1 µM was found to be 5%.
`Cn1c(=O)c2c(nc3n2CCN(Cc2ccc(Cl)c(Cl)c2)C3)n(C2CC2)c1=O` [Compound 17, 8-(3,4-dichlorobenzyl)-1-cyclopropyl-3-methyl-6,7,8,9-tetrahydropyrazino[2,1-f]purine-2,4(1H,3H)-dione]: the inhibitory constant (Ki) was > 10 µM in experiment [1]; 584 ± 8 nM in experiment [2]; > 100 nM in experiment [3]; 1130 nM in experiment [4]; 3940 nM in experiment [5]. For the same compound, the inhibition at 10 µM in experiment [1] amounted to 26%. For the same compound, in experiment [3], the inhibition at 0.1 µM was found to be 2%.
For the compound `CCn1c(=O)c2c(nc3n2CCN(Cc2ccccc2C(F)(F)F)C3)n(C)c1=O` [Compound 14d, 3-ethyl-1-methyl-8-(2-(trifluoromethyl)benzyl)-6,7,8,9-tetrahydropyrazino[2,1-f]purine-2,4(1H,3H)-dione], the Ki is 8.76 µM in experiment [1]; 114 ± 15 nM in experiment [2]; > 1000 nM in experiment [3]; 244 ± 74 nM in experiment [4]; > 1000 nM in experiment [5]. Further, the inhibition at 1 µM in experiment [3] is 2%. Moreover, in experiment [5], the “% inhibition of radioligand binding at indicated concentration, A2A vs. [^3H]MSX-2” value (“% inhibition of radioligand binding” for short) was determined as 20%.
`C#CCn1c(=O)c2c(nc3n2CCN(c2cccc(OC)c2)C3)n(CC)c1=O` [Compound 20c, 1-ethyl-8-(3-methoxyphenyl)-3-propargyl-6,7,8,9-tetrahydropyrazino[2,1-f]purine-2,4(1H,3H)-dione]: the Ki in experiment [1] is 7.16 µM; in experiment [2], 328 ± 70 nM; in experiment [3] it was > 1000 nM; in experiment [4] it was 946 ± 166 nM; in experiment [5], 250 ± 80 nM. Also, in experiment [3], the inhibition at 1 µM was 38%.
Regarding `CCn1c(=O)c2c(nc3n2CCN(Cc2cc(C(F)(F)F)ccc2Cl)C3)n(C)c1=O` [Compound 14m, 8-(2-chloro-5-(trifluoromethyl)benzyl)-3-ethyl-1-methyl-6,7,8,9-tetrahydropyrazino[2,1-f]purine-2,4(1H,3H)-dione], the Ki in experiment [1] was > 10 µM; in experiment [2] it was 76.2 ± 9 nM; in experiment [3], > 1000 nM; in experiment [4] it was 55.9 ± 8.3 nM; in experiment [5] it was 592 ± 28 nM. The inhibition at 10 µM in experiment [1] was found to be 35%. The inhibition at 1 µM in experiment [3] stood at 3%. Further, the “selectivity for the human A1 vs. the human A2A AR” value in experiment [4] came out at 16 fold.
As to `CCn1c(=O)c2c(nc3n2CCN(Cc2ccc(F)c(Br)c2)C3)n(CC)c1=O` [Compound 15k, 8-(3-bromo-4-fluorobenzyl)-1,3-diethyl-6,7,8,9-tetrahydropyrazino[2,1-f]purine-2,4(1H,3H)-dione], the Ki was 7.19 µM in experiment [1]; 270 ± 60 nM in experiment [2]; > 1000 nM in experiment [3]; 362 ± 98 nM in experiment [4]; > 1000 nM in experiment [5]. Further, the inhibition at 1 µM in experiment [3] was 34%. Moreover, in experiment [5], the “% inhibition of radioligand binding” value was 30%.
On to `CCn1c(=O)c2c(nc3n2CCN(Cc2cccc(F)c2)C3)n(C)c1=O` [Compound 14g, 3-ethyl-8-(3-fluorobenzyl)-1-methyl-6,7,8,9-tetrahydropyrazino[2,1-f]purine-2,4(1H,3H)-dione], for which the Ki is > 10 µM in experiment [1]; 59.4 ± 7.7 nM in experiment [2]; > 100 nM in experiment [3]; 85.3 ± 5.5 nM in experiment [4]; > 1000 nM in experiment [5]. In experiment [1], the inhibition at 10 µM was found to be 24%. In addition, the inhibition at 0.1 µM in experiment [3] was found to be 15%. In addition, the “% inhibition of radioligand binding” value in experiment [5] was 18%.
Consider `C#CCn1c(=O)c2c(nc3n2CCN(Cc2cc(C(F)(F)F)ccc2Cl)C3)n(C)c1=O` [Compound 19b, 8-(2-chloro-5-(trifluoromethyl)benzyl)-1-methyl-3-propargyl-6,7,8,9-tetrahydropyrazino[2,1-f]purine-2,4(1H,3H)-dione], for which the Ki is > 10 µM in experiment [1]; 153 ± 10 nM in experiment [2]; > 1000 nM in experiment [3]; 110 ± 4 nM in experiment [4]; 414 ± 49 nM in experiment [5]. Besides, the inhibition at 10 µM in experiment [1] turned out to be 25%. Further, in experiment [3], the inhibition at 1 µM is 3%.
For `CCn1c(=O)c2c(nc3n2CCN(Cc2ccccc2Br)C3)n(C)c1=O` [Compound 14a, 8-(2-bromobenzyl)-3-ethyl-1-methyl-6,7,8,9-tetrahydropyrazino[2,1-f]purine-2,4(1H,3H)-dione], the Ki is > 10 µM in experiment [1]; 123 ± 34 nM in experiment [2]; > 1000 nM in experiment [3]; 41.7 ± 8.3 nM in experiment [4]; 408 ± 90 nM in experiment [5]. Also, in experiment [1], the inhibition at 10 µM amounted to 36%. In addition, the inhibition at 1 µM in experiment [3] is 18%. Moreover, the “selectivity for the human A1 vs. the human A2A AR” value in experiment [4] is > 10 fold.

These data come from PMC6028563, “Probing Substituents in the 1- and 3-Position: Tetrahydropyrazino-Annelated Water-Soluble Xanthine Derivatives as Multi-Target Drugs With Potent Adenosine Receptor Antagonistic Activity” (Frontiers in Chemistry, 2018).
